Records with an inconclusive call do not appear. Active and inactive are the calls of the source. No rule for the calls is given here.
Tested on: orthopoxvirus-infected cells, imaging factory/early/late reporters
Assay: orthopoxvirus gene expression and factory formation inhibitors, imaging, low MOI, factory DAPI readout, single point, dry powder (AID 1117276)
Conditions: at 10 µM; stronger effect = higher value

SMILES: C[C@@H](O)C#Cc1ccc2c(c1)O[C@@H](CN(C)Cc1ccc(-c3ccccc3)cc1)[C@@H](C)CN([C@@H](C)CO)S2(=O)=O
- activity score, factory formation (DAPI): 36 (inactive)

Reference: PubChem BioAssay AID1117276 (Broad Institute, 2014)
